Assay results from article PMC3666588 (Journal of medicinal chemistry, 2013).
Entries after “also recorded” stand apart in the source; their conditions may differ. Where two headings read alike, the source gives them in different places.

Legend:
[1] = biological target: T1, ERα (Homo sapiens, UniProt P03372); assay: ERα trans-activation luciferase reporter assay in HeLa cells; settings: for antagonism of E2-stimulated luciferase expression in HeLa cells: in presence of 1 nM E2; for ERα agonist activity in HeLa or MCF-7 cells: 100 nM derivative, pCR3.1-ERα + ERE-Elb-Luc
T1 sequence (P03372 1-595): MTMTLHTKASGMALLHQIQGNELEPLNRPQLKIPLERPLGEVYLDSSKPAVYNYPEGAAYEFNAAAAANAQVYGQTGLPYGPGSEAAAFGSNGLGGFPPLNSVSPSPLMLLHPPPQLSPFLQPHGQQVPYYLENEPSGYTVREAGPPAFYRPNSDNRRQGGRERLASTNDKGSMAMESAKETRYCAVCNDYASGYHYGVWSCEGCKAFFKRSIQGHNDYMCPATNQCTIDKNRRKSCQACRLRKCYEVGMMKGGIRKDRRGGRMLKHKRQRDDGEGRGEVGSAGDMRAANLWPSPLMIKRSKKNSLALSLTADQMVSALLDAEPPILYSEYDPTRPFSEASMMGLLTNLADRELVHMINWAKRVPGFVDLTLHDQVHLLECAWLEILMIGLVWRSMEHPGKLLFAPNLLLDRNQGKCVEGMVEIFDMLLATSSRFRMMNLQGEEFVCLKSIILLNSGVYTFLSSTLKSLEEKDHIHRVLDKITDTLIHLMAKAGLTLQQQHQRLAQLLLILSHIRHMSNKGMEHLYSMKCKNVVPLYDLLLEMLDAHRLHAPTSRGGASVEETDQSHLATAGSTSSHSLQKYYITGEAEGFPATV

[2] = biological target: T1, ERα; assay: ERα radioligand; assay type: binding; settings: for ERα RBA: RBA = IC50 for E2 / IC50 for the test compound; for RBA for human ERs: text summary for human ERs (ERα and ERβ)
[3] = test system: MCF-7 cells; assay: In vitro cell proliferation assay; assay type: cell-based, human; settings: 0-1000 nM, 6 days, 10% FBS, no additional estrogen
[4] = biological target: recombinant human ERβ (Homo sapiens, UniProt Q92731); assay: ERβ radioligand; assay type: binding; settings: RBA = IC50 for E2 / IC50 for the test compound
[5] = test system: MDA-MB-231 cells; assay: In vitro cell proliferation assay; assay type: cell-based, human; settings: 0-1000 nM, 6 days
[6] = biological target: T1, ERα; assay: ERα trans-activation luciferase reporter assay in MCF-7 cells; settings: 100 nM derivative, compared with 1 nM E2; ERE-Elb-Luc reporter
[7] = biological target: T2, ERα LBD and SRC-1 (Homo sapiens, UniProt P03372); assay: Mammalian two-hybrid assay, ERα LBD - SRC-1 interaction in HeLa cells; assay type: cell-based; settings: 100 nM ligand, GAL-SRC-1 + VP16-ERα-LBD
T2 sequence (P03372 311-547 limits assumed): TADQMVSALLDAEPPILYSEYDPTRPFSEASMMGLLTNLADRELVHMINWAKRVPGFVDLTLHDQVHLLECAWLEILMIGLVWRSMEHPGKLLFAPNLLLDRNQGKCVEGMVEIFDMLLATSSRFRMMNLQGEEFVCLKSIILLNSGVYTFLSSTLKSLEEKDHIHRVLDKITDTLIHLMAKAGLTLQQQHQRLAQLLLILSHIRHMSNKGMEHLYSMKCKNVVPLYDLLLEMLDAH

[8] = biological target: T1, ERα; assay: ERα trans-activation luciferase reporter assay in HepG2 cells
[9] = test system: ERα LBD and CBP CH3 domain; settings: prior report ref 16; cited from earlier work

recombinant human ERβ, sequence (Q92731 whole entry): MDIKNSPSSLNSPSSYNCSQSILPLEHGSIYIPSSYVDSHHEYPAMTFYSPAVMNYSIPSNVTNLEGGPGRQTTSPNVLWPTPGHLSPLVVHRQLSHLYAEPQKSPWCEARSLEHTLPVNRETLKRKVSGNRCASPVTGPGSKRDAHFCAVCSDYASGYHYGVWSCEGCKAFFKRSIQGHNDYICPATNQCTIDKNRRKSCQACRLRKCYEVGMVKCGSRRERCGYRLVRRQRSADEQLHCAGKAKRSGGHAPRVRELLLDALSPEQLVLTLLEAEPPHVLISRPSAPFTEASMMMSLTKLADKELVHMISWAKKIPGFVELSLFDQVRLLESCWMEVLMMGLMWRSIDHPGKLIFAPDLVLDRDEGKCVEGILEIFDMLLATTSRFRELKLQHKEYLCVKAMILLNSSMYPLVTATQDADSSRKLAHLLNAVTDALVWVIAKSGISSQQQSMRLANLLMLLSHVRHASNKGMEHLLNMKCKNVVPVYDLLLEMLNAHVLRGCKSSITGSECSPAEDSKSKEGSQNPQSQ

CC(C)(C)OC(=O)N1CCN(c2ccc(C#CCCCC[C@@H]3Cc4cc(O)ccc4[C@H]4CC[C@]5(C)[C@@H](O)CC[C@H]5[C@H]34)cc2)CC1 [J4, 4-{4-[6-((7α,17β)-3,17-dihydroxyestra-1,3,5(10)-trien-7-yl)-hex-1-ynyl]-phenyl}-piperazine-1-carboxylic acid tert-butyl ester]
antagonism of E2-stimulated luciferase expression in HeLa cells [1]: less effective inhibitors | ERα RBA [2]: 1.1% | RBA for human ERs [2]: approximately 1 % of E2 | effect on growth of ER-positive MCF-7 cells [3]: concentration-dependent inhibition | ERβ RBA [4]: 2.0% | effect on growth of ER-negative MDA-MB-231 cells [5]: no appreciable effect; also recorded: did not show an appreciable effect | ERα agonist activity (transcription of target gene) in MCF-7 cells [6]: very poor agonists | promotion of ERα - SRC-1 coactivator interaction [7]: did not induce significant SRC-1 binding

C[C@]12CC[C@@H]3c4ccc(O)cc4C[C@@H](CCCCc4cn(-c5cc6ccc(O)cc6oc5=O)nn4)[C@H]3[C@@H]1CC[C@@H]2O [J7, 3-{4-[4-((7α,17β)-3,17-dihydroxyestra-1,3,5(10)-trien-7-yl)-butyl]-1,2,3-triazol-1-yl}-7-hydroxy-1-benzopyran-2-one]
antagonism of E2-stimulated luciferase expression in HeLa cells [1]: strongest antagonists | effect on growth of ER-positive MCF-7 cells [3]: concentration-dependent inhibition | ERα agonist activity (transcription of target gene) in MCF-7 cells [6]: no agonist activity | promotion of ERα - SRC-1 coactivator interaction [7]: did not induce significant SRC-1 binding

CCOC(=O)CC(=O)c1ccc(C#CCCCC[C@@H]2Cc3cc(O)ccc3[C@H]3CC[C@]4(C)[C@@H](O)CC[C@H]4[C@H]23)cc1 [J5, 3-{4-[6-((7α,17β)-3,17-dihydroxyestra-1,3,5(10)-trien-7-yl)-hex-1-ynyl]-phenyl}-3-oxo-propionic acid ethyl ester]
ERα RBA [2]: 6.2% | effect on growth of ER-positive MCF-7 cells [3]: either no effect or a stimulatory effect; also recorded: did not show an appreciable effect | ERβ RBA [4]: 4.7% | promotion of ERα - SRC-1 coactivator interaction [7]: effectively promoted the interaction

C[C@]12CC[C@@H]3c4ccc(O)cc4C[C@@H](CCCCC#Cc4ccc5ccccc5c4)[C@H]3[C@@H]1CC[C@@H]2O [J2, 3,17β-bis(hydroxy)-7α-(6-naphthalen-2-yl-hex-5-ynyl)-estra-1,3,5(10)-trien]
ERα RBA [2]: 3.4% | effect on growth of ER-positive MCF-7 cells [3]: either no effect or a stimulatory effect; also recorded: did not show an appreciable effect | promotion of ERα - SRC-1 coactivator interaction [7]: effectively promoted the interaction

C[C@]12CC[C@@H]3c4ccc(O)cc4C[C@@H](CCCCc4cn(CC5COc6ccccc6O5)nn4)[C@H]3[C@@H]1CC[C@@H]2O (stereo partly drawn) [J9, 3,17β-bis(hydroxy)-7α-{4-[1-(2,3-Dihydro-1,4-benzodioxin-2-ylmethyl)-1H-1,2,3-triazol-4-yl]-butyl}-estra-1,3,5(10)-trien]
ERα agonist activity in HeLa or MCF-7 cells [1]: poor agonists | antagonism of E2-stimulated luciferase expression in HeLa cells [1]: strongest antagonists | ERα RBA [2]: 24.6% | RBA for the human ERα ([2]; stated in docking discussion): 24.6 % of E2 | RBA for human ERs [2]: > 20 % of E2 | effect on growth of ER-positive MCF-7 cells [3]: concentration-dependent inhibition | ERβ RBA [4]: 21.1% | agonist activity in HepG2 cells relative to E2 ([8]; 100 nM derivative, normalized to 1 nM E2, pCR3.1-ERα + ERE-Elb-Luc): approximately 50 % of the agonist activity of E2 | ERα agonist activity (transcription of target gene) in MCF-7 cells [6]: no agonist activity | promotion of ERα - SRC-1 coactivator interaction [7]: did not induce significant SRC-1 binding

C[C@]12CC[C@@H]3c4ccc(O)cc4C[C@@H](CCCCC#Cc4ccc(-n5cccc5)cc4)[C@H]3[C@@H]1CC[C@@H]2O [J1, 3,17β-bis(hydroxy)-7α-[6-(4-pyrrol-1-yl-phenyl)-hex-5-ynyl]-estra-1,3,5(10)-trien]
ERα RBA [2]: 21.2% | RBA for human ERs [2]: > 20 % of E2 | effect on growth of ER-positive MCF-7 cells [3]: either no effect or a stimulatory effect; also recorded: did not show an appreciable effect | promotion of ERα - SRC-1 coactivator interaction [7]: effectively promoted the interaction

C[C@]12CC[C@@H]3c4ccc(O)cc4C[C@@H](CCCCC#Cc4ccc(-c5ccno5)cc4)[C@H]3[C@@H]1CC[C@@H]2O [J3, 3,17β-bis(hydroxy)-7α-[6-(4-Isoxazol-5-yl-phenyl)-hex-5-ynyl]-estra-1,3,5(10)-trien]
ERα agonist activity in HeLa or MCF-7 cells [1]: poor agonists | antagonism of E2-stimulated luciferase expression in HeLa cells [1]: less effective inhibitors | RBA for human ERs [2]: approximately 1 % of E2 | effect on growth of ER-positive MCF-7 cells [3]: concentration-dependent inhibition | agonist activity in HepG2 cells relative to E2 [8]: approximately 50 % of the agonist activity of E2 | effect on growth of ER-negative MDA-MB-231 cells [5]: no appreciable effect; also recorded: did not show an appreciable effect | ERα agonist activity (transcription of target gene) in MCF-7 cells [6]: very poor agonists | promotion of ERα - SRC-1 coactivator interaction [7]: did not induce significant SRC-1 binding

C[C@]12CC[C@@H]3c4ccc(O)cc4C[C@@H](CCCCCCCCC[S+]([O-])CCCC(F)(F)C(F)(F)F)[C@H]3[C@@H]1CC[C@@H]2O (stereo partly shown) [ICI-182,780, fulvestrant]
promotion of ERα interaction with CBP coactivator [9]: strongly promote ERα interaction with the CBP coactivator

CCOC(=O)C(Cc1ccc(C#CCCCC[C@@H]2Cc3cc(O)ccc3[C@H]3CC[C@]4(C)[C@@H](O)CC[C@H]4[C@H]23)cc1)C(=O)OCC [J8, 2-{4-[6-((7α,17β)-3,17-dihydroxyestra-1,3,5(10)-trien-7-yl)-hex-1-ynyl]-benzyl}-malonic acid diethyl ester]
ERα RBA [2]: 4.7% | effect on growth of ER-positive MCF-7 cells [3]: either no effect or a stimulatory effect; also recorded: did not show an appreciable effect | ERβ RBA [4]: 5.8% | ERα agonist activity (transcription of target gene) in MCF-7 cells [6]: markedly weaker effect | promotion of ERα - SRC-1 coactivator interaction [7]: effectively promoted the interaction

C[C@]12CC[C@@H]3c4ccc(O)cc4C[C@@H](CCCCC#Cc4ccc(CN5CCCCC5)cc4)[C@H]3[C@@H]1CC[C@@H]2O [J6, 3,17β-bis(hydroxy)-7α-[6-(4-piperidin-1-ylmethyl-phenyl)-hex-5-ynyl]-estra-1,3,5(10)-trien]
ERα RBA [2]: 0.9% | RBA for human ERs [2]: approximately 1 % of E2 | effect on growth of ER-positive MCF-7 cells [3]: either no effect or a stimulatory effect; also recorded: did not show an appreciable effect | ERα agonist activity (transcription of target gene) in MCF-7 cells [6]: markedly weaker effect | promotion of ERα - SRC-1 coactivator interaction [7]: effectively promoted the interaction
